Data published in patent US20250179047A1, “5-[7-(3,4-DIHYDRO-1H-ISOQUINOLINE-2-CARBONYL)-1,2,3,4 TETRAHYDROISOQUINOLIN-6-YL]-1H-PYRROLE-3-CARBOXAMIDE DERIVATIVES, PHARMACEUTICAL COMPOSITIONS CONTAINING THEM AND THEIR USES AS PRO-APOPTOTIC AGENTS” (LES LABORATOIRES SERVIER, priority 2022, published 2025).

Tests used:
BCL2 D103Y = BCL2 D103Y (Homo sapiens, UniProt P10415, D103Y); assay: TR-FRET competitive binding assay, BCL2 D103Y; settings: Ki determined from IC50, read-out: TR_FRET EKI_Bcl2 D103Y
How it was run: (§1)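 Terbium-labelled N-terminal Halo-fusion BCL2 or BCLXL (E. coli), 0.5 nM, competed against fluorescein-labelled PUMA peptide (2 or 20 nM) for 2 h at 23° C in 50 mM Hepes pH 7.5, 150 mM NaCl, 5% DMSO. TR-FRET 520/495 nm ratio gave IC50 by four-parameter fit; Ki derived from IC50.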

KMS-12-PE Bcl-2 G101V = assay: In vitro cytotoxicity CellTiter-Glo 48 h, KMS-12-PE Bcl-2 G101V; assay type: cell-based; settings: for Ratio (G101V/WT): C50 KMS-12-PE Bcl-2 G101V over C50 KMS-12-PE Bcl-2 WT; for IC50: 48 h, CellTiter-Glo, C50 = concentration needed to reach 50% of the cellular viability
Protocol: KMS-12-PE (ACC 606) were purchased from the Leibniz-Institute DSMZ (Braunschweig, Germany) and were grown at 37° C. in a humidified atmosphere with […] in media recommended by the suppliers. Lentiviral particles containing Bcl-2 wild type (also named “Bcl2 WT”) and Bcl-2 mutated on G101V (also named “Bcl2 G101V”) were cloned into pcLV-CMV-DEST-IRES-TagRFP. Lentiviral particles (1×106) were mixed with Polybrene at 8 µg/ml and transduced by spinoculation for 1 h at 32° C. and incubated overnight. After 8 days, TagRFP positive-cells were sorted by FACS. BCL2 expression was monitored by immunoblotting using anti-Flag and anti-BCL2 antibodies.
Cellular viability was monitored with the cell viability assay (CellTiter-Glo®) on KMS-12-PE WT and G101V cell lines. The CellTiter-Glo® (CTG) Luminescent Cell Viability Assay (from Promega) is a homogeneous method to determine the number of viable cells in culture based on quantitation of the ATP present, which signals the presence of metabolically active cells.
Dose response of compounds are performed with 10 mM stock solutions (DMSO), 11-points curve, in a 384-well compound plate. The assay plate is prepared by stamping 40 nL from compound dilution plate of all different concentrations (e.g. 10 mM to have final […] assay test) into a cell culture microplate, using Echo acoustic liquid handling (Labcyte, Beckman). 40 μl of cell solution is added and cells are incubated with compounds for 48 h at 37° C., 5% CO2. CTG was added to the cells (according to the manufacturer instructions) and luminescence intensity was recorded using the Pherastar plate reader (BMG).
This assay provides in vitro cellular potency of the tested Bcl-2 inhibitors, measuring the C50, defined as the concentration needed to reach 50% of the cellular viability.

BCLXL WT = BCLXL WT (Homo sapiens (Human), UniProt Q07817); assay: TR-FRET competitive binding assay, BCLXL WT; settings: for Ki: BCLXL WT, Ki determined from IC50, read-out: TR_FRET EKI BclxL; for TR_FRET EKI BCLxL/WT selectivty ratio: ratio Ki BCLxL / Ki BCL2 WT
Chain of BCLXL WT (Q07817 other isoform, or with tags, fused parts or gaps): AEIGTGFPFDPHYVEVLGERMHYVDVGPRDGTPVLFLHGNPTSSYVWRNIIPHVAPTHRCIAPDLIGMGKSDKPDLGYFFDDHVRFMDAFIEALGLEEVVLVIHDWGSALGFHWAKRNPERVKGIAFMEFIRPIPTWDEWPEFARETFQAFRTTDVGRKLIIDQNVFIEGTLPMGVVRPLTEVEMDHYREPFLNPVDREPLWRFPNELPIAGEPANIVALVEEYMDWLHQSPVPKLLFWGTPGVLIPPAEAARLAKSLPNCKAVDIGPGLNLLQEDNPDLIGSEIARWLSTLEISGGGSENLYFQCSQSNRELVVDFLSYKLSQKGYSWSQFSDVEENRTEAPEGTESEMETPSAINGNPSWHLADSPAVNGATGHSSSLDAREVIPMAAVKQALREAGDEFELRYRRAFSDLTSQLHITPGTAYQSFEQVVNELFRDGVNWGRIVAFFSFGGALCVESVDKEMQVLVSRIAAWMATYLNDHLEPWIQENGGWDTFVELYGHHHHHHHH
How it was run: as §1

BCL2 WT = BCL2 WT (Homo sapiens (Human), UniProt P10415); assay: TR-FRET competitive binding assay, BCL2 WT; settings: Ki determined from IC50, read-out: TR_FRET EKI_Bcl2 WT
How it was run: as §1

BCL2 G101V [1] = target: BCL2 G101V (Homo sapiens, UniProt P10415, G101V); assay: TR-FRET competitive binding assay, BCL2 G101V; settings: BCL2 G101V; Ki determined from IC50; read-out: TR_FRET EKI_Bcl2 G101V
How it was run: as §1

BCL2 G101V [2] = assay: TR-FRET competitive binding assay, BCL2 G101V; parameters: species or system human; settings: ratio Ki BCL2 G101V / Ki BCL2 WT
How it was run: as §1

KMS-12-PE Bcl-2 WT = assay: In vitro cytotoxicity CellTiter-Glo 48 h, KMS-12-PE Bcl-2 WT; assay type: cell-based; settings: C50 = concentration needed to reach 50% of the cellular viability
How it was run: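 Transduce KMS-12-PE with Bcl-2 WT or G101V lentivirus, then FACS-sort RFP-positive cells. Add compounds in an 11-point dilution series and incubate 48 h at 37 °C. Measure ATP-based luminescence with CellTiter-Glo and derive C50 (50% viability).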

Row | Structure (SMILES) | Ki (BCL2 D103Y) [nM] | Ki (BCLXL WT) [nM] | TR_FRET EKI BCLxL/WT selectivty ratio (BCLXL WT) | Ki (BCL2 WT) [nM] | Ki (BCL2 G101V [1]) [nM] | TR_FRET EKI G101V/WT selectivty ratio (BCL2 G101V [2]) | Ratio (G101V/WT) (KMS-12-PE Bcl-2 G101V) | IC50 (KMS-12-PE Bcl-2 G101V; Homo sapiens, KMS-12-PE) [µM] | IC50 (KMS-12-PE Bcl-2 WT; Homo sapiens, KMS-12-PE) [µM] | IC50 (KMS-12-PE Bcl-2 G101V) [µM] | IC50 (KMS-12-PE Bcl-2 WT) [µM]
1 | Cc1c(N(C(=O)c2cc(-c3cc4c(cc3C(=O)N3Cc5ccccc5C[C@H]3C)CN(C(=O)Cc3ccc([C@H]5C[C@@H]5N5CCOCC5)cc3F)CC4)n(C)c2C)c2ccc(O)cc2)cc(C#N)n1C (single isomer, unassigned) [Example 70, N-(5-cyano-1,2-dimethyl-pyrrol-3-yl)-5-[2-[2-[2-fluoro-4-[(1S,2R) or (1R,2S)-2-morpholinocyclopropyl]phenyl]acetyl]-7-[(3R)-3-methyl-3,4-dihydro-1H-isoquinoline-2-carbonyl]-3,4-dihydro-1H-isoquinolin-6-yl]-N-(4-hydroxyphenyl)-1,2-dimethyl-pyrrole-3-carboxamide] | 0.29 | 2.3 | 20.9 | 0.11 | 0.9 | 8.4 | 8.32 | 0.0629 | 0.0076 |  | 
2 | Cc1c(N(C(=O)c2cc(-c3cc4c(cc3C(=O)N3Cc5ccccc5C[C@H]3CN3CCCCC3)CN(C(=O)Cc3ccc(OCC(C)N5CCOCC5)cc3)CC4)n(C)c2C)c2ccc(O)cc2)cc(C#N)n1C (single isomer, unassigned) [Example 128, N-(5-cyano-1,2-dimethyl-1H-pyrrol-3-yl)-N-(4-hydroxyphenyl)-1,2-dimethyl-5-[2-(2-{4-[(2R or S)-2-(morpholin-4-yl)propoxy]phenyl}acetyl)-7-[(3S)-3-[(piperidin-1-yl)methyl]-1,2,3,4-tetrahydroisoquinoline-2-carbonyl]-1,2,3,4-tetrahydroisoquinolin-6-yl]-1H-pyrrole-3-carboxamide] | 0.21 | 5.4 | 93.1 | 0.06 | 0.4 | 6.9 | 5.95 |  |  | 0.0613 | 0.0103
3 | Cc1c(N(C(=O)c2cc(-c3cc4c(cc3C(=O)N3Cc5ccccc5C[C@H]3CN3CCCCC3)CN(C(=O)Cc3ccc(OCC(C)N5CCOCC5)cc3F)CC4)n(C)c2C)c2ccc(O)cc2)cc(C#N)n1C (single isomer, unassigned) [Example 141, N-(5-cyano-1,2-dimethyl-1H-pyrrol-3-yl)-5-[2-(2-{2-fluoro-4-[(2R or S)-2-(morpholin-4-yl)propoxy]phenyl}acetyl)-7-[(3S)-3-[(piperidin-1-yl)methyl]-1,2,3,4-tetrahydroisoquinoline-2-carbonyl]-1,2,3,4-tetrahydroisoquinolin-6-yl]-N-(4-hydroxyphenyl)-1,2-dimethyl-1H-pyrrole-3-carboxamide] | 0.2 | 1.1 | 17.7 | 0.06 | 0.3 | 4.7 | 2.2379 |  |  | 0.019 | 0.0085
4 | Cc1c(C(=O)N(c2ccc(O)cc2)c2cc(C#N)n(C(F)F)c2C)cc(-c2cc3c(cc2C(=O)N2Cc4ccccc4C[C@H]2CN2CCCCC2)CN(C(=O)Cc2ccc(OCCN4CCOC(C)C4)cc2F)CC3)n1C (single isomer, unassigned) [Example 162, N-[5-cyano-1-(difluoromethyl)-2-methyl-pyrrol-3-yl]-5-[2-[2-[2-fluoro-4-[2-((2R or S)-2-methylmorpholin-4-yl)ethoxy]phenyl]acetyl]-7-[(3S)-3-(1-piperidylmethyl)-3,4-dihydro-1H-isoquinoline-2-carbonyl]-3,4-dihydro-1H-isoquinolin-6-yl]-N-(4-hydroxyphenyl)-1,2-dimethyl-pyrrole-3-carboxamide] | 0.3 | 9.2 | 70.8 | 0.13 | 0.6 | 4.8 | 5.0958 | 0.0319 | 0.0063 |  | 
5 | Cc1c(N(C(=O)c2cc(-c3cc4c(cc3C(=O)N3Cc5ccccc5C[C@H]3C)CN(C(=O)Cc3ccccc3C#N)CC4)n(C)c2C)c2ccc(O)cc2)cc(C#N)n1C [Example 12, N-(5-cyano-1,2-dimethyl-1H-pyrrol-3-yl)-5-{2-[2-(2-cyanophenyl)acetyl]-7-[(3R)-3-methyl-1,2,3,4-tetrahydroisoquinoline-2-carbonyl]-1,2,3,4-tetrahydroisoquinolin-6-yl}-N-(4-hydroxyphenyl)-1,2-dimethyl-1H-pyrrole-3-carboxamide] | 0.4 |  |  | 0.22 | 1.7 | 7.7 | 9.14 | 0.0676 | 0.0074 |  | 

More lines, main results first:

Row | Ki (BCL2 D103Y) [nM] | Ki (BCLXL WT) [nM] | TR_FRET EKI BCLxL/WT selectivty ratio (BCLXL WT) | Ki (BCL2 WT) [nM] | Ki (BCL2 G101V [1]) [nM] | TR_FRET EKI G101V/WT selectivty ratio (BCL2 G101V [2]) | Structure (SMILES) | Ratio (G101V/WT) (KMS-12-PE Bcl-2 G101V) | IC50 (KMS-12-PE Bcl-2 G101V; Homo sapiens, KMS-12-PE) [µM] | IC50 (KMS-12-PE Bcl-2 WT; Homo sapiens, KMS-12-PE) [µM] | IC50 (KMS-12-PE Bcl-2 G101V) [µM] | IC50 (KMS-12-PE Bcl-2 WT) [µM]
6 | 0.28 | 1.4 | 10.8 | 0.13 | 0.5 | 3.7 | Cc1c(N(C(=O)c2cc(-c3cc4c(cc3C(=O)N3Cc5ccccc5C[C@H]3C)CN(C(=O)Cc3ccc(OCCN5CCOC(C)C5)cc3F)CC4)n(C)c2C)c2ccc(O)cc2)cc(C#N)n1C (single isomer, unassigned) [Example 75, N-(5-cyano-1,2-dimethyl-1H-pyrrol-3-yl)-5-[2-(2-{2-fluoro-4-[2-((2S or R)-2-methylmorpholin-4-yl)ethoxy]phenyl}acetyl)-7-[(3R)-3-methyl-1,2,3,4-tetrahydroisoquinoline-2-carbonyl]-1,2,3,4-tetrahydroisoquinolin-6-yl]-N-(4-hydroxyphenyl)-1,2-dimethyl-1H-pyrrole-3-carboxamide] | 3.93 | 0.0147 | 0.0037 |  | 
7 | 0.43 | 1.8 | 11.3 | 0.16 | 1 | 5.9 | Cc1c(C(=O)N(c2ccc(O)cc2)c2cc(C#N)n(CC3CCOC3)c2C)cc(-c2cc3c(cc2C(=O)N2Cc4ccccc4C[C@H]2C)CN(C(=O)Cc2ccc(OCCN4CCOCC4)cc2F)CC3)n1C (single isomer, unassigned) [Example 84, N-[5-cyano-2-methyl-1-((3S or R)-tetrahydrofuran-3-ylmethyl)pyrrol-3-yl]-5-[2-[2-[2-fluoro-4-(2-morpholinoethoxy)phenyl]acetyl]-7-[(3R)-3-methyl-3,4-dihydro-1H-isoquinoline-2-carbonyl]-3,4-dihydro-1H-isoquinolin-6-yl]-N-(4-hydroxyphenyl)-1,2-dimethyl-pyrrole-3-carboxamide] | 4.83 | 0.0353 | 0.0073 |  | 
8 | 0.3 | 2.6 | 38.8 | 0.07 | 0.5 | 7.8 | Cc1c(N(C(=O)c2cc(-c3cc4c(cc3C(=O)N3Cc5ccccc5C[C@H]3CN3CCCCC3)CN(C(=O)Cc3ccc(OCCC5COCCO5)cc3F)CC4)n(C)c2C)c2ccc(O)cc2)cc(C#N)n1C (single isomer, unassigned) [Example 174, N-(5-cyano-1,2-dimethyl-pyrrol-3-yl)-5-[2-[2-[4-[2-((2S or R)-1,4-dioxan-2-yl)ethoxy]-2-fluoro-phenyl]acetyl]-7-[(3S)-3-(1-piperidylmethyl)-3,4-dihydro-1H-isoquinoline-2-carbonyl]-3,4-dihydro-1H-isoquinolin-6-yl]-N-(4-hydroxyphenyl)-1,2-dimethyl-pyrrole-3-carboxamide] | 5.6751 | 0.0248 | 0.0044 |  | 
